Test results: patent publication US7655392B2, “Quenching methods for red blood cell inactivation process” (priority 2004, dated 2010)
Read-outs that look alike come from different tables or passages of the source.

Key:
[1] = tested on: Serratia marcescens; type: cell-based; conditions: Table 5B: 20 mM Cys+2 eq base only, no PIC-1
[2] = tested on: red blood cells; type: cell-based; conditions: 20 mM Cys+2 eq NaOH only, no PIC-1
Procedure: In another assay, the rabbit polyclonal sera may be reacted with treated red blood cells. After washing off unbound antibody, a FITC labeled goat anti-rabbit Fab′2 fragment (anti H+L chains, Caltag) is added. The binding of FITC label to the red blood cells correlates with the amount of acridine bound to the red blood cell surface, and is assessed by FACScan™ analysis (Becton, Dickinson and Co., NJ). The relative modification of the red blood cells is determined from the FACScan™ mean fluorescence value.
A 20 mL sample of leukoreduced whole blood (Blood Source, Sacramento, Calif.) was centrifuged at 4,100×g for 5 minutes at room temperature in each of four 50 mL centrifuge tubes. The supernatant was removed from each tube to provide red cell concentrate (RCC). […] For each washed RCC, cells were resuspended in 5 mL of the solution used for washing. This is now referred to as the RBC test sample. […] These samples were incubated for 20 hours at room temperature. After incubation, the RBC were washed in BBS (Blood Bank Saline, 0.9% saline, unbuffered, Fisher Scientific) and were diluted to a final hematocrit of 4%. A 25 μL aliquot of each was mixed with 15 μL of rabbit polyclonal anti-acridine sera diluted 1:100 in BBS and the mixture was incubated at 37° C. for 30 minutes. The cells were subsequently washed with 1.5 mL BBS. After washing was complete, the cells were mixed with 50 μL of FITC labeled goat anti-rabbit Fab′2 fragment (1:64 dilution in BBS) and incubated at 37° C. for 30 minutes. […] Note that the quenching improves as glutathione is neutralized with increasing amounts of sodium hydroxide.
The FACScan analysis of the binding of rabbit anti-acridine sera to treated red cells was used to assess a variety of quenching conditions. […] The tables represent data from two different experiments, each with samples treated under standard conditions or with 20 mM neutralized glutathione. […] The data within an experiment provides the relative efficacy of the various treatments. Because the assay may depend on the lot of red blood cells used, the absolute values of mean fluorescence may vary from one study to the next, such that relative values should only be compared within a given experiment. […] Neutralized glutathione at 20 mM results in close to background levels.
An untreated control sample as well as a standard sample (co-addition of 2 mM acidic glutathione with 0.2 mM PIC-1) were also assessed.
Full units of red cell concentrates (Interstate Blood Bank, Inc., Memphis, Tenn.) were leukoreduced. A volume of 200 mL of this RCC (80% hematocrit) was mixed with 94 mL of Erythrosol or 100 mL of Adsol (Baxter Healthcare Corp., Deerfield, Ill.) as control (unit 1). A volume of 20 mL 8% dextrose was used to dissolve PIC-1 (mg) and acid glutathione (mg) and added to one unit to provide 0.2 mM PIC-1 and 2 mM glutathione (unit 2). […] For the glutathione, 1.2 mL of 10 N NaOH was added (2 equivalents). The PIC-1 was mixed with the unit, followed 1 minute later (unit 3) or 5 minutes later (unit 4) by glutathione. For unit 5, neutralized glutathione was mixed first, followed 10 minutes later by the PIC-1. […] All units were mixed by grasping the ends of the blood bag and mixing in a FIG. 8 motion 30 times. These were then incubated at room temperature for 20 hours total. A compound adsorption device (CAD), comprising a polymeric resin contained within a mesh pouch, was used for all but the control sample. This device is intended to remove residual PIC-1, PIC-1 breakdown products, and glutathione from the samples. Samples were incubated for 8 hours, then transferred to a second blood bag containing the CAD and incubated for an additional 12 hours. Following the room temperature incubation, samples were transferred to a refrigerator (4° C.) and stored up to 43 days.

[3] = pH of quencher stock and of RBC mixture; type: physicochemical; conditions: for pH of stock quencher: room temperature
Procedure: The effect of various quenching conditions on the pH of a red blood cell composition was determined for various treatment conditions. The quencher solutions were prepared at a concentration of 600 mM in 8% dextrose monohydrate. […] Glutathione was assessed at 2 mM (acidic) or 20 mM (2 eq. of base). […] The pH of the quencher solution, either unmodified or neutralized, was measured using a standard Epoxy Calomel electrode (Beckman Instruments) at room temperature. […] The samples were mixed and the pH at room temperature was measured using the same electrode as described above.
In these, the appropriate amount of 600 mM stock was added, mixed with an appropriate volume of 8% dextrose to provide the same volume addition to each RBC sample where in one study, with varied glutathione concentrations, the pH was measured after adding glutathione and after adding PIC-1. […] Similar samples were also assessed for the inactivation of S. epidermidis. […] For gel card analysis, after incubation, the RBC were washed in BBS and were diluted in BBS to a final hematocrit of 4%. A 25 μL aliquot of each was mixed with 15 μL of rabbit polyclonal anti-acridine sera diluted either 1:4 or 1:100 in BBS and the mixture was incubated at 37° C. for 30 minutes. The cells were subsequently washed with 1.5 mL BBS. After washing was complete, the cells were mixed with goat anti-rabbit Fab′2 fragment anti H+L chains (1:4 dilution in PBS) and incubated at 37° C. for 30 minutes.

[4] = tested on: Staphylococcus epidermidis; experiment: Inactivation of Staphylococcus epidermidis in RBC (colony count); conditions: Table 5C: 20 mM cysteine+1 eq base only, no PIC-1
Procedure: Whole blood (Blood Source, Sacramento, Calif.) was used to prepare a red blood cell (RBC) composition by centrifuging to provide packed RBC (34 mL of approximately 90% hematocrit), then adding 17 mL Erythrosol to a hematocrit of approximately 60%. Erythrosol is a red blood cell additive (Baxter Healthcare Corp., Deerfield, Ill.) that may be prepared by combining sodium citrate dihydrate (7.82 g); sodium acid phosphate dihydrate (0.73 g); sodium phosphate dihydrate (3.03 g); adenine (0.22 g); mannitol (7.74 g); and glucose (9 g) in 1 liter of distilled water. The bacterial preparation was then added ( 1/100th of the total volume) to the RBC/Erythrosol to provide contaminated RBC. The contaminated RBC was divided into several samples and treated according to Table 2, where PIC-1 is β-alanine, N-(acridin-9-yl), 2-[bis(2-chloroethyl)amino]ethyl ester. The PIC-1 and glutathione (Aldrich, St. Louis, Mo.) were dissolved in a solution of 8% dextrose monohydrate at about 15× the desired concentration in the final red blood cell composition when added together, or 30× when added separately. […] For separate addition using 20 mM neutralized glutathione, PIC-1 is prepared by dissolving 7.6 mg in 2.5 mL of 8% dextrose, glutathione is prepared by dissolving 460 mg in 1.9 mL of 8% dextrose and mixing with 0.6 mL of 5N NaOH, then adding 165 μL of each solution to 4.67 mL RBC in the appropriate order. Following treatment, the samples were incubated for 2 hours, and 100 μL of each was serially diluted and plated on LB plates. These were incubated overnight at 37° C. in order to assess bacterial growth. The bacterial titer was determined by counting colonies on the plates and based on the dilution of the plate, the titer was determined. For example, with 10-fold serial dilutions, 30 colonies counted on the 5th dilution of the original solution, where 0.1 mL are plated, would indicate an initial titer of (30×10^5)/0.1=3×10^7, or 7.47 log. […] Note that for most samples in Table 2A the PIC-1 and glutathione were formulated together. […] The study was repeated with sequential addition of the two components, as indicated in Table 2B (time delay of 0 indicates they were added in the same solution).
Additional studies were done using S. epidermidis, where the overnight culture was used without dilution. […] PIC-1 is at 0.2 mM in all samples.
For these samples, the NaOH stock was prepared at 10N and appropriate volumes of the various components were used following the procedures above. Standard conditions and/or 20 mM neutralized glutathione (GSH) were run for comparison.

[5] = Table 10: RBC + 20 mM quencher + 1 eq. base + 0.2 mM PIC-1
[6] = Table 10: RBC + 20 mM quencher + 2 eq. base + 0.2 mM PIC-1
[7] = 600 mM in 8% dextrose + 1 eq. base

| SMILES | Log S. marcescens reduction [1] | Log S. marcescens titer [1] | mean fluorescence ([2]; Table 9A: control) | mean fluorescence ([2]; Table 9B: control) | pH of final mixture [3, 5] | pH of final mixture [3, 6] | pH of final mixture ([3]; Table 10: RBC + 20 mM quencher, no base + 0.2 mM PIC-1) | Log S. epidermidis reduction [4] | Log S. epidermidis titer [4] | pH of stock quencher [3, 7] | pH of stock quencher ([3]; 600 mM in 8% dextrose + 2 eq. base) |
| --- | --- | --- | --- | --- | --- | --- | --- | --- | --- | --- | --- |
| N[C@@H](CS)C(=O)O [cysteine] | 0.3 Log | 7.3 Log | 1.9 | 1.99 | 7.4 | 7.8 | 6.5 | 0.1 Log | 7.1 Log | – | – |
| CC(=O)N[C@@H](CS)C(=O)O [N-acetyl cys, N-acetyl cysteine] | – | – | – | – | 6.7 | – | – | – | – | 6 | – |
| CSCC[C@H](N)C(=O)O [methionine, reference compound] | – | – | – | – | 7.5 | 8 | – | – | – | 11.2 | 13.1 |
